US8476298B2 (Exelixis, Inc., priority 2003, dated 2013)

Tests used:
[1] = target: T1, Flt-3 (baculovirus expressed human Flt-3 kinase domain R571-S993) (Homo sapiens, UniProt P36888); assay: biochemical; conditions: read-out: flt3 IC50;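 note: Luciferase-coupled chemiluminescent kinase assay, activity read as percent ATP left after a 3 h reaction at room temperature, ATP near KM, 10-point dose-response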
T1 construct: human Flt-3 kinase domain R571-S993; host or cells: baculovirus expression
T1 sequence (P36888 571-993): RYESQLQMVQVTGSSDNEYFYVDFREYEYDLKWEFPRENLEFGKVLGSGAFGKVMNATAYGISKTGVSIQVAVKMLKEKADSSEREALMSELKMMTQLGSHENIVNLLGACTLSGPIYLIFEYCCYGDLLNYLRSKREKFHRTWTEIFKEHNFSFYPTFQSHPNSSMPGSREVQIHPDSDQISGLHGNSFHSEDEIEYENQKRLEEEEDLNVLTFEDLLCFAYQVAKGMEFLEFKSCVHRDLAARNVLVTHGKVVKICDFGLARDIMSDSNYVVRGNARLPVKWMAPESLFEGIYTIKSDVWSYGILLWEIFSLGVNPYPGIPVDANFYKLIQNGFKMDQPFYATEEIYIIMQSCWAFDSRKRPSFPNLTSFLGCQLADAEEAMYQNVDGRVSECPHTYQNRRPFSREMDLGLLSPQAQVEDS

[2] = target: T2, KDR (baculovirus expressed human KDR kinase domain D807-V1356) (Homo sapiens, UniProt P35968); assay: biochemical;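 note: Luciferase-coupled chemiluminescent kinase assay, activity read as percent ATP left after 4 h reaction at ambient temperature, ATP near KM, 10-point dose-response in 384-well plates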
T2 construct: human KDR kinase domain D807-V1356; host or cells: baculovirus expression
T2 sequence (P35968 807-1356): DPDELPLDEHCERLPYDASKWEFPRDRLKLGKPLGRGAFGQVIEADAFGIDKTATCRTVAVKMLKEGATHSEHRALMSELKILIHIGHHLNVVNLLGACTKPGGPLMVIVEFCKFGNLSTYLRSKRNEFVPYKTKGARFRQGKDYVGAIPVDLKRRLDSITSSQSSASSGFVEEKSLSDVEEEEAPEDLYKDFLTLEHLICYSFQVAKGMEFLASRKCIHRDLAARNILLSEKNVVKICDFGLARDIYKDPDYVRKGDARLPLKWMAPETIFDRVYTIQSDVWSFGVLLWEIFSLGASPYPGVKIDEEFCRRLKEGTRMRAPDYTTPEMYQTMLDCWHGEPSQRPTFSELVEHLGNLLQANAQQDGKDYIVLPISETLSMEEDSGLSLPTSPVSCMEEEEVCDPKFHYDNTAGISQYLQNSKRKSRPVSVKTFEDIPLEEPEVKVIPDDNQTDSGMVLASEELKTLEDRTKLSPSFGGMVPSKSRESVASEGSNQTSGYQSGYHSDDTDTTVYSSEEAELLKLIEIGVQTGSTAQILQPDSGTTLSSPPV

c-Kit kinase = c-Kit kinase (Homo sapiens, UniProt P10721); assay: c-Kit AlphaScreen kinase assay; format: biochemical;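 note: c-Kit kinase phosphorylating biotinylated poly(Glu,Tyr), ATP near its KM, 1 h reaction at ambient temperature, AlphaScreen chemiluminescence with streptavidin donor and anti-phosphotyrosine acceptor beads, 10-point inhibitor titration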
c-Kit kinase, sequence (P10721 26-976): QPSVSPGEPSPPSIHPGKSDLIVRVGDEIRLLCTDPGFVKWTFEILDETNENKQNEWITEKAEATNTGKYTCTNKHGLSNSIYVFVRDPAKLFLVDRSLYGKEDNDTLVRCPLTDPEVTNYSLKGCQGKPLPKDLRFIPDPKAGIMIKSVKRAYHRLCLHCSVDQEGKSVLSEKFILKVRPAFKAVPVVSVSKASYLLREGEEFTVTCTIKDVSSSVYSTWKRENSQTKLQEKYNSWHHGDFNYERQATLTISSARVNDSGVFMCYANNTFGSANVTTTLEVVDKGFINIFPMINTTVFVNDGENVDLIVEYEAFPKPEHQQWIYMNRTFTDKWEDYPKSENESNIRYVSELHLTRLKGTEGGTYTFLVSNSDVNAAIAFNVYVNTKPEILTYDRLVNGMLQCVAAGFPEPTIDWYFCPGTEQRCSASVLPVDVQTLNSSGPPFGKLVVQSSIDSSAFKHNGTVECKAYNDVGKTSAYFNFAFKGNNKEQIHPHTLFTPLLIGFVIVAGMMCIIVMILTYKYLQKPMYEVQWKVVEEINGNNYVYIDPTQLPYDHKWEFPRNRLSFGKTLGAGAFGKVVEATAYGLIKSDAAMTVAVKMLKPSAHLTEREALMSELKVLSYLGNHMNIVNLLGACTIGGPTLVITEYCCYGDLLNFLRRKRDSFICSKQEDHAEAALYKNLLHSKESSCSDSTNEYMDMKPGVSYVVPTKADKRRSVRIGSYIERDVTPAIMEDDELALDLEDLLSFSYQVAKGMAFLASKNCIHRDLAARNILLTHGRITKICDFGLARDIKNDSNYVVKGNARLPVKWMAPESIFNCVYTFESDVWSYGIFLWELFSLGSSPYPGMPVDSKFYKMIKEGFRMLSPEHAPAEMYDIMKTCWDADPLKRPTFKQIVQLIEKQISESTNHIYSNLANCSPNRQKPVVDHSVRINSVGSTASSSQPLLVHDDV

[3] = target: T3, c-Met (baculovirus expressed human c-Met kinase domain P948-S1343) (Homo sapiens, UniProt P08581); assay: c-Met Luciferase-Coupled Chemiluminescent Kinase assay (LCCA); format: biochemical;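 note: kinase activity read as percent ATP left after reaction, by luciferase-luciferin chemiluminescence, with 1 µM ATP and 1 µM poly-EY substrate, 2 h at ambient temperature, 10-point dose-response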
T3 construct: human c-Met kinase domain P948-S1343; host or cells: baculovirus expression
T3 sequence (P08581 1011-1343 limits assumed): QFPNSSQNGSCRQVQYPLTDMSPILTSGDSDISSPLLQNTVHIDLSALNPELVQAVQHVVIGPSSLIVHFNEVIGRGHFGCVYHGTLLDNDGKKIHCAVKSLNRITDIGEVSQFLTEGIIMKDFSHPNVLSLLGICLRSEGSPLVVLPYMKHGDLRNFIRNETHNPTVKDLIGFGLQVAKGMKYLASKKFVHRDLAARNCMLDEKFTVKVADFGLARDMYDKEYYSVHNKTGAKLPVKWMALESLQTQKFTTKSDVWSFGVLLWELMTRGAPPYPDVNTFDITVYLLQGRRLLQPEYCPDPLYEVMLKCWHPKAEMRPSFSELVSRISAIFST

[4] = target: T4, Flt-4 (baculovirus expressed human Flt-4 kinase domain D725-R1298) (Homo sapiens, UniProt P35916); assay: flt-4 Alphascreen Tyrosine Kinase assay; format: biochemical; conditions: read-out: flt4 IC50;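 note: AlphaScreen chemiluminescence read-out of biotinylated poly(Glu,Tyr) 4:1 phosphorylation via streptavidin donor and PY100 anti-phosphotyrosine acceptor beads, ATP near KM, 1 hr kinase reaction, 10-point dose-response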
T4 construct: human Flt-4 kinase domain D725-R1298; host or cells: baculovirus expression
T4 sequence (P35916 725-1298 isoform P35916-1): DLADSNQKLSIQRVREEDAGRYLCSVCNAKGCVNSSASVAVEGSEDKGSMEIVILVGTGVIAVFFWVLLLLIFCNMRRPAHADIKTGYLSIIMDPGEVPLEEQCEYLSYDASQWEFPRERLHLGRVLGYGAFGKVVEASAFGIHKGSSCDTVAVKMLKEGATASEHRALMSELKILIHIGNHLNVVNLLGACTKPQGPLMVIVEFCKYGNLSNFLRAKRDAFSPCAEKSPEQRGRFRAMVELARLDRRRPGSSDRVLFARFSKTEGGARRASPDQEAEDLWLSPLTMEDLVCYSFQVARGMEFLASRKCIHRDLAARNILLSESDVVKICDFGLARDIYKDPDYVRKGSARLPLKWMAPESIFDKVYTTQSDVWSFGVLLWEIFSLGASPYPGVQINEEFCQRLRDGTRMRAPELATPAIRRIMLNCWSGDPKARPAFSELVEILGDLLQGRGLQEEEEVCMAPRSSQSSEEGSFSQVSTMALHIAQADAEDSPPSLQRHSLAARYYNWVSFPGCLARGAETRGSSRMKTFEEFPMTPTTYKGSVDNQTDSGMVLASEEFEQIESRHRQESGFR

IC50 [1] [nM] | IC50 [2] [nM] | IC50 (c-Kit kinase) [nM] | IC50 [3] [nM] | IC50 [4] [nM] | Compound
< 50 | < 50 | < 50 | < 50 | < 50 | CCN(CC)CCCOc1cc2nccc(Oc3ccc(NC(=O)C4(C(=O)Nc5ccc(F)cc5)CC4)cc3F)c2cc1OC [Example 336, N-(4-{[7-{[3-(diethylamino)propyl]oxy}-6-(methyloxy)quinolin-4-yl]oxy}-3-fluorophenyl)-N′-(4-fluorophenyl)cyclopropane-1,1-dicarboxamide]
500 to 5000 | 50 to 500 | 50 to 500 | < 50 | 500 to 5000 | COc1cc2nccc(Oc3cc(Cl)c(NC(=O)C4(C(=O)Nc5ccc(F)cc5)CC4)cc3F)c2cc1OC [Example 337, N-(4-{[6,7-bis(methyloxy)quinolin-4-yl]oxy}-2-chloro-5-fluorophenyl)-N′-(4-fluorophenyl)cyclopropane-1,1-dicarboxamide]
< 50 | < 50 | 50 to 500 | < 50 | < 50 | COc1cc2c(Oc3ccc(NC(=O)[C@@]4(C(=O)Nc5ccc(F)cc5)C[C@H]4C)cc3F)ccnc2cc1OCCCN1CCOCC1 [Example 342, (1S,2R)-N-[3-fluoro-4-({6-(methyloxy)-7-[(3-morpholin-4-ylpropyl)oxy]quinolin-4-yl}oxy)phenyl]-N′-(4-fluorophenyl)-2-methylcyclopropane-1,1-dicarboxamide]
< 50 | < 50 | < 50 | < 50 | < 50 | COc1cc2c(Oc3ccc(NC(=O)[C@]4(C(=O)Nc5ccc(F)cc5)C[C@H]4C)cc3F)ccnc2cc1OCCCN1CCOCC1 [Example 343, (1R,2R)-N-[3-fluoro-4-({6-(methyloxy)-7-[(3-morpholin-4-ylpropyl)oxy]quinolin-4-yl}oxy)phenyl]-N′-(4-fluorophenyl)-2-methylcyclopropane-1,1-dicarboxamide]
